Holding throughout (format): in vivo
The test system of data set [1] is swine exposed to 1.5 ATA hyperbaric oxygen for 17.5 hr. As to the kind of experiment: Experiment 1 shallow exposure simulation: Impulse Oscillometry (IOS). Particulars: 1.5 ATA O2 17.5 hr, 18 mcg nebulized pre-dive, post-dive normalized to baseline, n=7/arm. How it is done: Experiment 1 is designed to evaluate the efficacy of tiotropium bromide administered pre-dive in reducing decrements in pulmonary function due to PO2T following a 17.5 hour, 1.5 ATA hyperbaric oxygen exposure. This dive profile was selected because it was of sufficient duration to elicit persistent pulmonary function decrement in humans.
The swine were anesthetized with propofol (20 cc, I.V. target, adjusted as needed to optimize sedation), intubated and ventilated. Anesthetized swine were shaved, then ECG and EEG electrodes were placed. Animals were then paralyzed with Atracurium Besylate (50 mg, IV) for accurate pulmonary function measurements of quasi-static and dynamic compliance.
Following baseline pulmonary function measurements, the swine were randomized to receive equivalent volumes of normal saline or tiotropium bromide (18 mcg) via nebulizer. The swine were then ventilated until muscle tone was regained. […]
Next, the swine were switched to 100% oxygen breathing gas and remained at 1.5 ATA for 17.5 hr. […] When fully sedated, the swine were ventilated, paralyzed with Atracurium Besylate, and post-dive measurements of pulmonary function were recorded. During all phases of study the swine were continuously monitored for signs of seizure or distress. […]

Data set [2] concerns swine exposed to 2.5 ATA hyperbaric oxygen for 5.5 hr. As to the kind of experiment: Experiment 2: heart rate variability (SDNN). Conditions: 2.5 ATA O2 5.5 hr; mean+/−SEM; p=0.0331 vs saline. How it is done:
The swine were prepared for ECG recording as described previously. Briefly, using an electric shaver, ECG areas were prepared bilaterally, posterior to the shoulder, lateral to the vertebrae, at approximately 4-7 cm above ribs 5-7 (bipolar derivation). Another area was prepared 2 cm lateral to the vertebrae on right side, between ribs 12-13. Newly exposed skin was rubbed with isopropyl alcohol. Disposable pre-wired (Grass Technologies/Astro-Med, Inc. Warwick, Mass.) or SF405 (KENDALL MEDI-TRACE™, Tyco Healthcare, Mansfield, Mass.) self-adhesive Ag/AgCl electrodes were placed on the proximal, symmetric sites and the ground electrode was placed at the distal site (between ribs 12-13). […]
Wideband AC amplifiers (Grass, Quincy, Mass.) were used for EEG and ECG recordings; a 0.5-35 Hz and 60 cycle notch filter setting was used. […] Heart rate variability (HRV) was calculated from pre-dive ECG epochs of at least 2 min durations using the Labchart ECG tool suite. […] Above the manually set trigger level the LabChart software looked for maximum values and measured the time interval between peaks (maximal amplitude of R-wave). […] The length of measured periods were: (1) 114.995 sec; peak-to-peak distance 0.750 t 0.0004 sec; 153 peaks; FFT 1.329 Hz=79.74 bpm; and (2) 326.52 sec; peak-to-peak distance 0.750±0.0003; 434 peaks; FFT 1.332 Hz=79.92 bpm. […]

In data set [3] the test system is swine exposed to 1.5 ATA hyperbaric oxygen for 17.5 hr. Nature of the data set: Experiment 1: adverse effects observation. How it is done: Next, the swine were switched to 100% oxygen breathing gas and remained at 1.5 ATA for 17.5 hr. At the end of the 17.5 hour 1.5 ATA oxygen exposure, swine surfaced at a rate of 1 ATA/minutes (ATA/min), were transferred to a Panepinto sling, sedated with diazepam (1.5-2.0 mg/kg, I.V) and reassessed via impulse Oscillometry. The swine were again anesthetized with propofol and intubated. When fully sedated, the swine were ventilated, paralyzed with Atracurium Besylate, and post-dive measurements of pulmonary function were recorded. During all phases of study the swine were continuously monitored for signs of seizure or distress.
Once measurements were complete, animals were then euthanized by intravenous infusion of euthanasia solution (Euthasol 1-1.5 ml/10 lbs. body weight) and transported to the necropsy suite for post-mortem sample collection.

Molecules are shown by their SMILES.

As for `C[N+]1(C)[C@@H]2C[C@@H](OC(=O)C(O)(c3cccs3)c3cccs3)C[C@H]1[C@@H]1O[C@@H]12` [Tiotropium, tiotropium bromide], the “IOS resistance, Tiotropium treated animals vs saline controls” value in data set [1] (p=0.172) is on record as “no significant differences”. Moreover, the “IOS reactance, Tiotropium treated animals vs saline controls” value in data set [1] (p=0.65) is on record as “no significant differences”. In addition, the “Post-dive SDNN normalized to the pre-dive SDNN” value in data set [2] was 103.5+/−15.87. For the same molecule, the “adverse effect on outcome at any of the assessed endpoints” value in data set [3] (1.5 ATA O2 17.5 hr, 18 mcg nebulized pre-dive) is on record as “no observable adverse effect”. For the same molecule, the “adverse reactions (including seizure)” value in data set [3] (1.5 ATA oxygen exposure) was “no adverse reactions”.
